# Source: ChEMBL document CHEMBL3991601, “The target landscape of clinical kinase drugs” (Science, 2017)
# Active and inactive are the calls of the source.
# Legend:
# Aurora kinase B = Aurora kinase B (Homo sapiens, UniProt Q96GD4)
# [1] = biological target: Cyclin-dependent kinase 4 (Homo sapiens, UniProt P11802)
# [2] = biological target: T1, NUAK family SNF1-like kinase 2 (Homo sapiens, UniProt Q9H093)
# T1 sequence (Q9H093 whole entry): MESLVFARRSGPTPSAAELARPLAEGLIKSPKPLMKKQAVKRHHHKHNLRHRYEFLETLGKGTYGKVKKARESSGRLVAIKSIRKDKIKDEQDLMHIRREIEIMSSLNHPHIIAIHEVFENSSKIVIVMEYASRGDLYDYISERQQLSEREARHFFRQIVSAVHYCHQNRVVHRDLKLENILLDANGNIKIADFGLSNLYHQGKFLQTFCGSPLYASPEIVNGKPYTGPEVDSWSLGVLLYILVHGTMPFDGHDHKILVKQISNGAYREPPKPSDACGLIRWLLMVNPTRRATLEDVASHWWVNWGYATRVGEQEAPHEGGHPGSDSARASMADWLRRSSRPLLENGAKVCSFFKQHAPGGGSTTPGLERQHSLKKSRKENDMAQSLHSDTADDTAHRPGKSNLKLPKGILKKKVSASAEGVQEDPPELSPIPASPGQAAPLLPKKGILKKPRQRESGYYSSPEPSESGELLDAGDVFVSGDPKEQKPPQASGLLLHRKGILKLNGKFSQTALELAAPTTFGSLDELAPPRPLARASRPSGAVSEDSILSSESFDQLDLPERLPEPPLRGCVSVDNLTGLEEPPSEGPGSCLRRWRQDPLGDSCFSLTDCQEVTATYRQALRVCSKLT
# [3] = biological target: Serine/threonine-protein kinase N2 (Homo sapiens, UniProt Q16513)
# Sequence of Serine/threonine-protein kinase N2 (Q16513 whole entry): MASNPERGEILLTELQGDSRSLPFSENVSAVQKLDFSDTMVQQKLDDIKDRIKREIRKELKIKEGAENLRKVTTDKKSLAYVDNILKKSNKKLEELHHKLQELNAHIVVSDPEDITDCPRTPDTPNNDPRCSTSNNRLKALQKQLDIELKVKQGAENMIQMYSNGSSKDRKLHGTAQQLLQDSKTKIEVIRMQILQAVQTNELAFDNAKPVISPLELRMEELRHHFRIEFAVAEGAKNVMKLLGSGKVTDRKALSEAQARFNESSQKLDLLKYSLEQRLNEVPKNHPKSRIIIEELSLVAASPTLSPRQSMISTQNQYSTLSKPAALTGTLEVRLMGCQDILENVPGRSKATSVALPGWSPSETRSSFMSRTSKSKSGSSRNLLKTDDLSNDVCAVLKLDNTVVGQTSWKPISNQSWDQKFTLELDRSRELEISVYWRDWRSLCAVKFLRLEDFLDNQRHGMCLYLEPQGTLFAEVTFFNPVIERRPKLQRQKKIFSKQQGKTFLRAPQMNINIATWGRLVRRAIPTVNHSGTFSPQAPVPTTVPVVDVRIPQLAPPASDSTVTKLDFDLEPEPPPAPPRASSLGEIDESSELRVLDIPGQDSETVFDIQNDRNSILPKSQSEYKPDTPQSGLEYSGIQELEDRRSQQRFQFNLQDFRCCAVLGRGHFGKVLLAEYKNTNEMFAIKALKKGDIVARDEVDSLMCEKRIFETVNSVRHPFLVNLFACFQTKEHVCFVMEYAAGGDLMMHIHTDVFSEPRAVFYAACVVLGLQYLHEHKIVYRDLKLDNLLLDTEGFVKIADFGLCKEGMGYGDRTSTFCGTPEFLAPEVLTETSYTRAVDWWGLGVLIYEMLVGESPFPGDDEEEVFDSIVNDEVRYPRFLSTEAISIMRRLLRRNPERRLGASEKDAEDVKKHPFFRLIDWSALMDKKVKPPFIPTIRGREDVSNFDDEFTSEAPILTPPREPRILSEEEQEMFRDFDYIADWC
# [4] = biological target: T2, Serine/threonine-protein kinase D3 (Homo sapiens, UniProt O94806)
# T2 sequence (O94806 whole entry): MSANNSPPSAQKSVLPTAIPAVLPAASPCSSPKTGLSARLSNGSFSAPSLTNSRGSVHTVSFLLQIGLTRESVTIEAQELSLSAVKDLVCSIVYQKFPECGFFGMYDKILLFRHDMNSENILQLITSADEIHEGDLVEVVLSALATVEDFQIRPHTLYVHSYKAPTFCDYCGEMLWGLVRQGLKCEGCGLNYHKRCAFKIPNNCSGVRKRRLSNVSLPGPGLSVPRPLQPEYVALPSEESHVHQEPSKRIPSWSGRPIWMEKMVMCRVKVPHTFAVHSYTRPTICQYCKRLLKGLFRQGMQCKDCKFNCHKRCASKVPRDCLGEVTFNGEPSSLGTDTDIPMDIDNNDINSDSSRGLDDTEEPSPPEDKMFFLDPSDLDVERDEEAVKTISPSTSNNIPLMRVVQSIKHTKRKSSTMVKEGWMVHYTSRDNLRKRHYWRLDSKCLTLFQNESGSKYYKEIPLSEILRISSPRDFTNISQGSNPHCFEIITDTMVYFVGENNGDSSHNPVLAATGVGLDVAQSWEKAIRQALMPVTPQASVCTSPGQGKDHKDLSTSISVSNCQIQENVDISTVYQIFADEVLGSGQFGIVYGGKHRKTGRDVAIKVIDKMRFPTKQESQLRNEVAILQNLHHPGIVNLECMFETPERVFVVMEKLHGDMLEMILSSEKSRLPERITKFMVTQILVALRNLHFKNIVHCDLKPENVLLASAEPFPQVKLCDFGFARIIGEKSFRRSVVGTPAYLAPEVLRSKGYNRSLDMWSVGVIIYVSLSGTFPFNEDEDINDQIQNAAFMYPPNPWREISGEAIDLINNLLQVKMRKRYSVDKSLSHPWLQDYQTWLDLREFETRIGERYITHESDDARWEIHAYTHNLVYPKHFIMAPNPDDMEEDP
# [5] = biological target: T3, STE20-related kinase adapter protein alpha (Homo sapiens, UniProt Q7RTN6)
# T3 sequence (Q7RTN6 whole entry): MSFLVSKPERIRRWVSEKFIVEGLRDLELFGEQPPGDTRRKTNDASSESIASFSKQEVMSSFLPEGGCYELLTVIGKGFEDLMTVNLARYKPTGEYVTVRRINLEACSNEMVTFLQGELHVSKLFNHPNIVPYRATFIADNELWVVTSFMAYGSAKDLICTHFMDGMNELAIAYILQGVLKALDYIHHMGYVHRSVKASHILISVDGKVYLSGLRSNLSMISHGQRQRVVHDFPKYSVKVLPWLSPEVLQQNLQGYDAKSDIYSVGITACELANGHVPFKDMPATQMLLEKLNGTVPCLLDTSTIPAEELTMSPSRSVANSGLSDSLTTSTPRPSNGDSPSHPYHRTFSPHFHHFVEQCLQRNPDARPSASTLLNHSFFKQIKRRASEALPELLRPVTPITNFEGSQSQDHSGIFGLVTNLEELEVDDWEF
# [6] = biological target: T4, Tyrosine--tRNA ligase, cytoplasmic (Homo sapiens, UniProt P54577)
# T4 sequence (P54577 whole entry): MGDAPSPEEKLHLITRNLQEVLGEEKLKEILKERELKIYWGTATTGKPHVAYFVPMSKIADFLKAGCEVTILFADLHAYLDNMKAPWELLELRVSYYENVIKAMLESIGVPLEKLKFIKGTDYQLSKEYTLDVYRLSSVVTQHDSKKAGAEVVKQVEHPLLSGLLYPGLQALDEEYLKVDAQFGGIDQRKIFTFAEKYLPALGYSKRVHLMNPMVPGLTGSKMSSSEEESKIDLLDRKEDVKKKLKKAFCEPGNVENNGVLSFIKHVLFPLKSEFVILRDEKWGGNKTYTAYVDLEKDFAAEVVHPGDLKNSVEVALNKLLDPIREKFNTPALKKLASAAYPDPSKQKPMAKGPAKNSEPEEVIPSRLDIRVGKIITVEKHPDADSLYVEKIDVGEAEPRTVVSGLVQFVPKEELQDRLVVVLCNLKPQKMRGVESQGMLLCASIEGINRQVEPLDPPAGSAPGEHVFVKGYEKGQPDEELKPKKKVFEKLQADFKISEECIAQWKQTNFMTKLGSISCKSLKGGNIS
# Also: in the data inactive means no Kd found up to 30 µM.
# Sequence of Aurora kinase B (Q96GD4 whole entry): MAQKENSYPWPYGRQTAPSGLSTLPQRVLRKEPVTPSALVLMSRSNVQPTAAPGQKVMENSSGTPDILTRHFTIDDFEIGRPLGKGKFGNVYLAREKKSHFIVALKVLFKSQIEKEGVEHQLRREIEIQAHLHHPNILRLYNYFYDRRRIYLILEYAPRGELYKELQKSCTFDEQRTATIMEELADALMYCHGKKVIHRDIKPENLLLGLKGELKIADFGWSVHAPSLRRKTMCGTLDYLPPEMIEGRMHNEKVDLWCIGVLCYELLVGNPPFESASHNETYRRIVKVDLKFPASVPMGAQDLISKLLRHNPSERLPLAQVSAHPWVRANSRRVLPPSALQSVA
# Sequence of Cyclin-dependent kinase 4 (P11802 whole entry): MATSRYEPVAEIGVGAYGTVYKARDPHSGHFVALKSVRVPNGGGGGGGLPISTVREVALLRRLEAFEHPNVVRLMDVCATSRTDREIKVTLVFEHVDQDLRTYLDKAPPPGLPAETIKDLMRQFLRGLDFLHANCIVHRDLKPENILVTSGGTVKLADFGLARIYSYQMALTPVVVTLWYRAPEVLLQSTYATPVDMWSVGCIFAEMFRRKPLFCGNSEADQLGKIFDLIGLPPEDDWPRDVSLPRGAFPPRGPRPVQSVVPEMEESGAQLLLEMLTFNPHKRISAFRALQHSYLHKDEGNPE
Structure (SMILES),Kd (Aurora kinase B),Kd [1],Kd [2],Kd [3],Kd [4],Kd [5],Kd [6]
CNC(=O)CN1CCC(Oc2cc3c(Nc4cccc(Cl)c4F)ncnc3cc2OC)CC1 [SAPITINIB],> 30 µM (inactive),> 30 µM (inactive),> 30 µM (inactive),> 30 µM (inactive),> 30 µM (inactive),> 30 µM (inactive),> 30 µM (inactive)
CCCS(=O)(=O)Nc1ccc(F)c(C(=O)c2c[nH]c3ncc(-c4ccc(Cl)cc4)cc23)c1F [VEMURAFENIB],> 30 µM (inactive),> 30 µM (inactive),> 30 µM (inactive),> 30 µM (inactive),> 30 µM (inactive),> 30 µM (inactive),> 30 µM (inactive)
CNC(=O)c1ccc(C)c(-n2c(C)cc(OCc3ccc(F)cc3F)c(Br)c2=O)c1 [PH-797804],> 30 µM (inactive),> 30 µM (inactive),> 30 µM (inactive),> 30 µM (inactive),> 30 µM (inactive),0.672 µM,> 30 µM (inactive)
C[C@@H](c1ccc2nccn2c1)n1nnc2ncc(-c3cnn(C)c3)nc21 [SAVOLITINIB],> 30 µM (inactive),> 30 µM (inactive),> 30 µM (inactive),> 30 µM (inactive),> 30 µM (inactive),> 30 µM (inactive),> 30 µM (inactive)
CN1CCC(COc2cnc(-c3cccc(Cn4nc(-c5cccc(C#N)c5)ccc4=O)c3)nc2)CC1 [TEPOTINIB],> 30 µM (inactive),> 30 µM (inactive),> 30 µM (inactive),> 30 µM (inactive),> 30 µM (inactive),> 30 µM (inactive),> 30 µM (inactive)
COc1cc(N2CCC(N3CCN(C)CC3)CC2)ccc1Nc1ncnc(Nc2ccccc2S(=O)(=O)C(C)C)n1 [ASP-3026],0.1 µM (active),> 30 µM (inactive),> 30 µM (inactive),> 30 µM (inactive),> 30 µM (inactive),> 30 µM (inactive),> 30 µM (inactive)
CNC(=O)c1ccc(-c2cnc3ncc(Cc4ccc5ncccc5c4)n3n2)cc1F [CAPMATINIB],> 30 µM (inactive),> 30 µM (inactive),> 30 µM (inactive),> 30 µM (inactive),> 30 µM (inactive),> 30 µM (inactive),> 30 µM (inactive)
CCn1c(=O)c(-c2cc[nH]n2)cc2c(C)nc(N)nc21 [VOXTALISIB],> 30 µM (inactive),> 30 µM (inactive),> 30 µM (inactive),> 30 µM (inactive),> 30 µM (inactive),> 30 µM (inactive),> 30 µM (inactive)
Cc1cc2c(F)c(Oc3ncnn4cc(OC[C@@H](C)OC(=O)[C@H](C)N)c(C)c34)ccc2[nH]1 [BRIVANIB ALANINATE],> 30 µM (inactive),> 30 µM (inactive),0.003 µM,> 30 µM (inactive),> 30 µM (inactive),> 30 µM (inactive),> 30 µM (inactive)
